From ChEMBL document CHEMBL1152879, “Discovery of GlyT1 inhibitors with improved pharmacokinetic properties” (Bioorg Med Chem Lett, 2009)
pIC50: −log10 of the molar value. Calls of active or inactive are those of the source. The calls are words filed in the database; no cut-off is given here.

What was measured:
[1] = target: T1, Sodium- and chloride-dependent taurine transporter (Homo sapiens, UniProt P31641); experiment: Inhibition of taurine transporter
T1 sequence (P31641 whole entry): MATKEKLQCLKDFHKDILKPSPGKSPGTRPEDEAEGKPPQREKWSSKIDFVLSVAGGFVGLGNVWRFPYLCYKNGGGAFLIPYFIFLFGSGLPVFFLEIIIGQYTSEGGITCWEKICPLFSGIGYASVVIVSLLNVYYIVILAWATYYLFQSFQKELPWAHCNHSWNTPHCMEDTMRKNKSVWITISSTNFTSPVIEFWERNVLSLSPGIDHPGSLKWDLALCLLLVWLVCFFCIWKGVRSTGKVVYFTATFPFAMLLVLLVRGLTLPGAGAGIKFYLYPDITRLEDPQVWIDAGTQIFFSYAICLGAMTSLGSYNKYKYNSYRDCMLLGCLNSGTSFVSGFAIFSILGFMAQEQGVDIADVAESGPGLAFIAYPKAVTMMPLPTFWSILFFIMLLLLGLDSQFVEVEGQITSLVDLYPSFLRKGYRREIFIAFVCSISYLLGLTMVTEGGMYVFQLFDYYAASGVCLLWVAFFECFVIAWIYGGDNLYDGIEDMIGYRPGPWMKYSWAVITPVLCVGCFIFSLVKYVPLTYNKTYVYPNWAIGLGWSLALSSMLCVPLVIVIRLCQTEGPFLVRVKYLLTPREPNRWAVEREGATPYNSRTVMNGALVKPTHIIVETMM

[2] = Half life in dog at 0.25 mg/kg, iv by cassette dosing; format: ADME, organism-based, Canis lupus familiaris; design: dose 0.25 mg/kg, route intravenous; details: in vivo
[3] = target: T2, Sodium- and chloride-dependent glycine transporter 1 (Homo sapiens, UniProt P48067); experiment: (§1) Inhibition of Glyt1
T2 sequence (P48067 whole entry): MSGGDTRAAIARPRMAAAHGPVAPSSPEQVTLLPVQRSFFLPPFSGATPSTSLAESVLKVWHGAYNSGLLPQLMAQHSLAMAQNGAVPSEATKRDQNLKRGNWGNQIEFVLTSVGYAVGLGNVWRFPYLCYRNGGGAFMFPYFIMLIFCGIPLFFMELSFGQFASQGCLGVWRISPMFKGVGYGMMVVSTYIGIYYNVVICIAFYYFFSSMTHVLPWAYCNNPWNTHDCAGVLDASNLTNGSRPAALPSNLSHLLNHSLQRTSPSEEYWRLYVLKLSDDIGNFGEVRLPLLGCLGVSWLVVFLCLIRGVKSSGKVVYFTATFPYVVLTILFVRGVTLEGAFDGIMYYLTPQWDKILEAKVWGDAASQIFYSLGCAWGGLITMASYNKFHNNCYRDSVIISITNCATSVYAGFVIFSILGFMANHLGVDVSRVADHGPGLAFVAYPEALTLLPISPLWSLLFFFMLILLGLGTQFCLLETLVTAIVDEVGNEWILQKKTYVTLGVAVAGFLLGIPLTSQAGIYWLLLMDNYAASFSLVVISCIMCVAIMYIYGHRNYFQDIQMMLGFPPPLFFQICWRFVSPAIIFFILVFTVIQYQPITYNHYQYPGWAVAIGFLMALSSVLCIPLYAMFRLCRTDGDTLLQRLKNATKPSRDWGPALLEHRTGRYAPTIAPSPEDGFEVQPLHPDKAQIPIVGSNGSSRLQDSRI

[4] = Clearance in dog at 0.25 mg/kg, iv by cassette dosing; format: ADME, organism-based, Canis lupus familiaris; design: dose 0.25 mg/kg, route intravenous; details: in vivo
[5] = target: T3, Sodium- and chloride-dependent glycine transporter 2 (Homo sapiens, UniProt Q9Y345); experiment: Inhibition of Glyt2
T3 sequence (Q9Y345 whole entry): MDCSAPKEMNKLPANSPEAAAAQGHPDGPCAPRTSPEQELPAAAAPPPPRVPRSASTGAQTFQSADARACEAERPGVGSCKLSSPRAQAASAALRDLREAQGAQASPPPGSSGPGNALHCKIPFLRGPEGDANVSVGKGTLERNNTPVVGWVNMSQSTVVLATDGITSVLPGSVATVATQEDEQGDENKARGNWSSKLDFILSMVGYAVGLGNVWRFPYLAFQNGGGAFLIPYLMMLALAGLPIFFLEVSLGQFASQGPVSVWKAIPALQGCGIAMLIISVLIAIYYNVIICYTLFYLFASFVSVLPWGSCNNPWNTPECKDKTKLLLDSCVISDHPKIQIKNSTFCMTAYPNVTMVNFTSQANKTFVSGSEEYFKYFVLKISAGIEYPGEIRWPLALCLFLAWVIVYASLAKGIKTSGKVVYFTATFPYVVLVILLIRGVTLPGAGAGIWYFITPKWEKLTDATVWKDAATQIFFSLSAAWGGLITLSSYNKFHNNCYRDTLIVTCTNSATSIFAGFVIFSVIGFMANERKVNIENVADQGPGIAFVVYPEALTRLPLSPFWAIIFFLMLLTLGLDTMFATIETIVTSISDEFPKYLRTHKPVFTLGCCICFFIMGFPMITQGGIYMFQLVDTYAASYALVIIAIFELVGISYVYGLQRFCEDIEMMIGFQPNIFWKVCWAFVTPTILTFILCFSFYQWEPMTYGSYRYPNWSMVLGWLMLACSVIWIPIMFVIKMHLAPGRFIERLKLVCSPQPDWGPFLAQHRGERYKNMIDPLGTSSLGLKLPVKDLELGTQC

[6] = Half life in dog at 0.5 mg/kg, iv and 1 mg/kg, po; format: ADME, organism-based, Canis lupus familiaris; details: in vivo
[7] = Clearance in dog at 0.5 mg/kg, iv and 1 mg/kg, po; format: ADME, organism-based, Canis lupus familiaris; details: in vivo
[8] = Volume of distribution at steady state in dog at 0.5 mg/kg, iv and 1 mg/kg, po; format: ADME, organism-based, Canis lupus familiaris; details: in vivo, read-out: Vdss
Homo sapiens = species on record: Homo sapiens; experiment: Activity of human P-glycoprotein
[9] = Oral bioavailability in dog at 1 mg/kg; format: ADME, organism-based, Canis lupus familiaris; details: in vivo
Rattus norvegicus [10] = species on record: Rattus norvegicus; experiment: Activity of rat P-glycoprotein
Rattus norvegicus [11] = experiment: In vivo plasma occupancy by displacement of [35S]ACPPB from rat GlyT1 in po dosed rat brain; format: functional
MDR1 (human) = experiment: Passive permeability from apical to basolateral side of pig LLC-PK1 cells expressing human MDR1; format: ADME, cell-based, Sus scrofa; details: read-out: permeability
[12] = target: T4, Sodium- and chloride-dependent glycine transporter 1 (Homo sapiens) (UniProt P48067); experiment: as §1
T4 sequence (whole entry): T2 sequence (P48067 whole entry)

| pIC50 [1] | half-life [2] | pIC50 [3] | clearance [4] | pIC50 [5] | SMILES | further results |
| --- | --- | --- | --- | --- | --- | --- |
| < 4.52 | < 2 h | 8.54 | > 15 mL/min/kg | < 4.52 | CCCS(=O)(=O)N1CCC(CNC(=O)c2ccc(Cl)cc2Cl)(CC2CCCCO2)CC1 (stereo unspecified) | – |
| < 4.52 | 8.4 h | 6.52 | 1 mL/min/kg | < 4.52 | CS(=O)(=O)N1CCC(CNC(=O)c2ccc(Cl)cc2Cl)(c2ccccn2)CC1 | – |
| – | < 2 h | 7.42 | > 15 mL/min/kg | – | CCCS(=O)(=O)N1CCC(CNC(=O)c2ccc(Cl)cc2Cl)(N2CCC2)CC1 | – |
| < 4.52 | < 2 h | 7.58 | > 15 mL/min/kg | < 4.52 | CCCS(=O)(=O)N1CCC(CCOC)(CNC(=O)c2ccc(Cl)cc2Cl)CC1 | – |
| – | – | 6.66 | – | – | CC(C)S(=O)(=O)N1CCC(CNC(=O)c2ccc(Cl)cc2Cl)(c2ccccn2)CC1 | – |
| – | 4.9 h | 5.97 | 2.5 mL/min/kg | – | O=C(NCC1(c2ccccn2)CCN(S(=O)(=O)CC(F)(F)F)CC1)c1ccc(Cl)cc1Cl | – |
| < 4.52 | – | 8.01 | – | < 4.52 | CC(F)CS(=O)(=O)N1CCC(CNC(=O)c2ccc(Cl)cc2Cl)(c2ccccn2)CC1 (stereo unspecified) | – |
| – | < 2 h | 7.75 | > 15 mL/min/kg | – | CCCS(=O)(=O)N1CCC(CNC(=O)c2ccc(Cl)cc2Cl)(C2CCCCC2OC(C)=O)CC1 (stereo unspecified) | – |
| < 4.52 | 7.6 h | 6.70 | 1.7 mL/min/kg | < 4.52 | O=C(NCC1(c2ccccn2)CCN(S(=O)(=O)C2CC2)CC1)c1ccc(Cl)cc1Cl | – |
| < 4.52 | < 2 h | 7.52 | > 15 mL/min/kg | < 4.52 | CCCS(=O)(=O)N1CCC(CNC(=O)c2ccc(Cl)cc2Cl)(CC2CC2)CC1 | – |
| < 4.52 | 2.3 h | – | 15 mL/min/kg | < 4.52 | CCCS(=O)(=O)N1CCC(CNC(=O)c2ccc(Cl)cc2Cl)(c2ccccn2)CC1 | – |
| – | – | – | 0.84 mL/min/kg | – | CCS(=O)(=O)N1CCC(CNC(=O)c2ccc(Cl)cc2Cl)(CC2CC2)CC1 | half-life [6]: 11.8 h; clearance [7]: 2.3 mL/min/kg; Vd [8]: 2.1 L/kg; Activity (Homo sapiens): inactive; bioavailability [9]: 38%; Activity (Rattus norvegicus [10]): inactive; Occ50 (Rattus norvegicus [11]): 260 nM |
| – | – | < 5.30 | – | – | O=C(NCC1(c2ccccn2)CCN(S(=O)(=O)C(F)(F)F)CC1)c1ccc(Cl)cc1Cl | – |
| – | – | 6.92 | – | – | CCCCS(=O)(=O)N1CCC(CNC(=O)c2ccc(Cl)cc2Cl)(c2ccccn2)CC1 | – |
| < 4.52 | < 2 h | 8.55 | > 15 mL/min/kg | < 4.52 | CCCS(=O)(=O)N1CCC(CNC(=O)c2ccc(Cl)cc2Cl)(C2CCCCC2O)CC1 (stereo unspecified) | – |
| < 4.52 | 8 h | 7.24 | 1.4 mL/min/kg | < 4.52 | CCS(=O)(=O)N1CCC(CNC(=O)c2ccc(Cl)cc2Cl)(c2ccccn2)CC1 | – |
| – | – | 7.07 | – | – | CC(O)CS(=O)(=O)N1CCC(CNC(=O)c2ccc(Cl)cc2Cl)(c2ccccn2)CC1 (stereo unspecified) | – |
| – | – | – | 3.6 mL/min/kg | – | CCS(=O)(=O)N1CCC(c2ccccn2)([C@H](C)NC(=O)c2ccc(Cl)cc2Cl)CC1 | half-life [6]: 5 h; clearance [7]: 3.5 mL/min/kg; Vd [8]: 1.37 L/kg; Papp A→B (MDR1 (human)): 37 ×10⁻⁶ cm/s; Activity [12]: 11 nM; Activity (Homo sapiens): inactive; bioavailability [9]: 25%; Activity (Rattus norvegicus [10]): inactive; Occ50 (Rattus norvegicus [11]): 150 nM |
| – | 1.9 h | 7.11 | 11.8 mL/min/kg | – | CN(C)S(=O)(=O)N1CCC(CNC(=O)c2ccc(Cl)cc2Cl)(c2ccccn2)CC1 | – |
